Test results from publication PMC6406907, “A H2AX–CARP-1 Interaction Regulates Apoptosis Signaling Following DNA Damage” (Cancers, 2019).

What was measured:
Assay type in all cases: cell-based, human
[1] = system: CARP-1, phospho-JNK1/2, phospho-H2AX; experiment: Western blot of CARP-1, phospho-JNK1/2, γH2AX in HeLa; conditions: 10 μM, WB
Procedure: Logarithmically growing cells were either untreated or treated with different agents for various time periods. The cells were lysed to prepare protein extracts. IP was carried out by incubating approximately 1 mg of the protein lysate with appropriate antibodies. The immunoprecipitates were then analyzed by SDS-PAGE, followed by WB with respective, interacting protein. For Gst-pulldown, Gst-H2AX or various His-TAT-HA-tagged CARP-1 peptides were generated in Escherichia coli (E. coli) BL21 cells essentially as described by us previously. Briefly, the competent E. coli BL-21 (DE3) pLysS cells were transformed separately with various recombinant pGEX-4T-1 or pTAT-HA constructs. The transformed cells were then subjected to selection by combined presence of ampicillin and chloramphenicol; various isolates for each transformation were obtained and bacterial lysates were characterized for expression of fusion peptides. Cells from each isolate were grown in 4 mL of LB medium containing ampicillin only until the optical density (OD)600 reached 0.4–0.8. […]
Here, we utilized human TNBC MDA-MB-468 and human cervical cancer HeLa cells to conduct an MTT-based dose-response analysis using Adriamycin and CFM compounds. […] The cell lysates from the control, untreated, and treated cells were analyzed by WB for expression of CARP-1, phospho-JNK1/2, phospho-H2AX, and poly ADP ribose polymerase (PARP) proteins. […]

[2] = system: CARP-1, phospho-JNK1/2, phospho-H2AX, PARP; experiment: Western blot of CARP-1, phospho-JNK1/2, γH2AX, cleaved PARP in MDA-MB-468; conditions: for expression of CARP-1, phospho-JNK1/2, phospho-H2AX / PARP cleavage: MDA-MB-468, WB; for PARP cleavage: robust cleaved PARP over 12-h treatment period; for CARP-1 levels and γH2AX: MDA-MB-468, WB / IF
Procedure: (§1) Logarithmically growing cells were either untreated or treated with different agents for various time periods. The cells were lysed to prepare protein extracts. IP was carried out by incubating approximately 1 mg of the protein lysate with appropriate antibodies. The immunoprecipitates were then analyzed by SDS-PAGE, followed by WB with respective, interacting protein. For Gst-pulldown, Gst-H2AX or various His-TAT-HA-tagged CARP-1 peptides were generated in Escherichia coli (E. coli) BL21 cells essentially as described by us previously. Briefly, the competent E. coli BL-21 (DE3) pLysS cells were transformed separately with various recombinant pGEX-4T-1 or pTAT-HA constructs. The transformed cells were then subjected to selection by combined presence of ampicillin and chloramphenicol; various isolates for each transformation were obtained and bacterial lysates were characterized for expression of fusion peptides. Cells from each isolate were grown in 4 mL of LB medium containing ampicillin only until the optical density (OD)600 reached 0.4–0.8. Expression of fusion peptides was induced over 2–4 h incubation periods after Isopropyl β-D-1-thiogalactopyranoside (IPTG) addition. The cells were harvested, and pellets were stored at −80 °C overnight. The cell pellets were then lysed in 100–400 μL of bacterial protein extraction reagent (BPER) buffer (Thermo Scientific, Waltham, MA, USA, Cat# 78243) containing 2 μL/mL of 10 units/μL DNAse I (Boehringer Mannheim, Fremont, CA, USA, Cat # 776–785), and supernatant checked for expression of respective fusion peptides by WB. Following confirmation of expression, 5–20 μL of lysate expressing Gst fusion protein was first incubated with 20 μL of precleared glutathione sepharose in a final volume of 100 μL at 4 °C for 2 h with constant rotation. The sepharose beads were spun at 800× g for 2 min, and the pellet was washed 2–4 times with 100–200 μL of RIPA buffer (20 mM Tris-HCl (pH 7.5), 150 mM NaCl, 1 mM Na2EDTA, 1 mM EGTA, 1% NP-40, 1% sodium deoxycholate, 2.5 mM sodium pyrophosphate, 1 mM β-glycerophosphate, 1 mM Na3VO4, 1 µg/mL leupeptin) with 0.5 M NaCl. The beads were spun again as above, and mixed with 5–20 μL of E. coli lysate expressing His-TAT-HA CARP-1 peptides. The reactions were incubated further at 4 °C for 2 h with constant rotation. The peptide-bound sepharose beads were pelleted and washed with 100–200 μL of RIPA buffer with 0.1 M NaCl for 2–4 washes. In some cases, additional washes with 0.05 M NaCl buffer were carried out. After the final wash, the sepharose–protein complexes were spun, and then re-suspended in SDS loading buffer for electrophoresis on 12–15% SDS PAGE, followed by WB with appropriate antibodies.
Here, we utilized human TNBC MDA-MB-468 and human cervical cancer HeLa cells to conduct an MTT-based dose-response analysis using Adriamycin and CFM compounds. […] Since Adriamycin, CFM-4, and CFM-4.16 have molecular masses of 543.3, 404.9, and 440.3, respectively, we chose to use an equimolar dose of each compound in the MTT assays. […] Prior reports established that phosphorylation of H2AX at serine 139 (γ-H2AX) is involved in DNA damage repair and apoptotic signaling by ATM/ATR and JNKs, respectively. Next, the MDA-MB-468, HeLa, and the kidney cancer UOK 262 cells were treated with a 10 μM dose of the CFM-4.16 or Adriamycin for various time periods. The cell lysates from the control, untreated, and treated cells were analyzed by WB for expression of CARP-1, phospho-JNK1/2, phospho-H2AX, and poly ADP ribose polymerase (PARP) proteins. […] The H2AX activation is also indicative of DNA damage and involves pro-apoptotic JNKs. Our data in Figure 1C and Figure S1B,C (Supplementary Materials) also show activation of JNKs; however, a robust JNK activation is co-incident with H2AX phosphorylation following treatments with Adriamycin or CFM-4.16. […]

[3] = system: CARP-1 and γH2AX; experiment: WB/IF of CARP-1 and γH2AX in HCC827; conditions: for CARP-1 and γH2AX increase after knock-down of CARP-1: HCC827, CARP-1 knock-down; for CARP-1 levels and γH2AX: HCC827, WB / IF
Procedure: as §1
Cells were plated onto chamber slides one day before treatment. […]

SMILES	expression of CARP-1, phospho-JNK1/2, phospho-H2AX [1]	H2AX activation ([2]; 10 μM Adriamycin, WB)	expression of CARP-1, phospho-JNK1/2, phospho-H2AX ([2]; 10 μM)	PARP cleavage ([2]; 10 μM)	time of earliest stimulation of PARP cleavage ([2]; 10 μM, MDA-MB-468, "as early as") [h]	γH2AX ([2]; MDA-MB-468, Adriamycin alone, WB)	CARP-1 levels and γH2AX [2]	CARP-1 and γH2AX increase after knock-down of CARP-1 [3]	CARP-1 levels and γH2AX [3]
COc1cccc2c1C(=O)c1c(O)c3c(c(O)c1C2=O)C[C@@](O)(C(=O)CO)C[C@@H]3O[C@H]1C[C@H](N)[C@H](O)[C@H](C)O1 [Adriamycin, doxorubicin, reference compound]	stimulated expression of CARP-1, phospho-JNK1/2, and phospho-H2AX in a time-dependent manner	robust at 12 h	stimulated expression of CARP-1, phospho-JNK1/2, and phospho-H2AX in a time-dependent manner	provoked PARP cleavage in a time-dependent manner	3	robust increase in γH2AX	robust increase in CARP-1 levels and γH2AX	abrogated CARP-1 and γH2AX increase	robust increase in CARP-1 levels and γH2AX
O=C1N(Cc2ccccc2Cl)c2ccccc2C12NN=C(c1cccc(Cl)c1)S2 (stereo not drawn) [CFM-4.16]	stimulated expression of CARP-1, phospho-JNK1/2, and phospho-H2AX in a time-dependent manner	–	stimulated expression of CARP-1, phospho-JNK1/2, and phospho-H2AX in a time-dependent manner	provoked PARP cleavage in a time-dependent manner	–	–	robust increase in CARP-1 levels and γH2AX	abrogated CARP-1 and γH2AX increase	robust increase in CARP-1 levels and γH2AX
